These are literature values, as cited in US20030143271A1, “Drug mixture with enhanced dissolution rate” (priority 2002, published 2003).

Series [1] addresses platelet cyclooxygenase-1 (Homo sapiens, UniProt P23219). As to conditions: clinical relevance not clear.
Series [2] relates to antiplatelet effects of the aspirin. As to conditions: in combination with low-dose aspirin, healthy subjects.

platelet cyclooxygenase-1, sequence (P23219 24-599): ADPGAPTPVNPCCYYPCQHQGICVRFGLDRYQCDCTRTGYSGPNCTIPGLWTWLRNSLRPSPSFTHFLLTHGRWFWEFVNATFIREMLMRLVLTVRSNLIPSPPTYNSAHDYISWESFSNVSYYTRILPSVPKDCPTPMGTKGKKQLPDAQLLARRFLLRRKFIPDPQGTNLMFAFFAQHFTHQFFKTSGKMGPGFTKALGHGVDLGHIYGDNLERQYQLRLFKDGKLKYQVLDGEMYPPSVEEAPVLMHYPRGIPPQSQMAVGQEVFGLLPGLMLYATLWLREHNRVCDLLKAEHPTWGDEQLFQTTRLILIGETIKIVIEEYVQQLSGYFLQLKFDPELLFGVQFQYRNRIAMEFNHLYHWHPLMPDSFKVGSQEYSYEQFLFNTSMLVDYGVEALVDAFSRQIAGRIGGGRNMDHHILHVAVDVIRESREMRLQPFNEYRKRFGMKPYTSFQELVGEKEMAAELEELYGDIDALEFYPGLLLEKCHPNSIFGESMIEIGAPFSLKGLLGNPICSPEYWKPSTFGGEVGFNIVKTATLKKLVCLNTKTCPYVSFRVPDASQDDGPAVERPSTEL

In the case of `CS(=O)(=O)c1ccc(C2=C(c3ccccc3)C(=O)OC2)cc1` [rofecoxib], in series [1], the “effect on the antiplatelet activity of aspirin” value is listed as “some antagonistic effect”. Moreover, the “effect on antiplatelet effects of aspirin” value in series [2] is recorded as “did not alter antiplatelet effects of the aspirin”.
On to `Cc1onc(-c2ccccc2)c1-c1ccc(S(N)(=O)=O)cc1` [valdecoxib], for which the “effect on the antiplatelet activity of aspirin” value in series [1] is “some antagonistic effect”.
